Values of other authors as cited in publication PMC11949389 (Polish Journal of Microbiology, 2025).
≈ marks a conversion by molar mass, not a printed value.

Tests used:
[1] = tested on: Mycobacterium biofilms, including Mycobacterium abscessus and Mycobacterium fortuitum; details: even at sub-MIC concentrations; ref Marini et al. (2019)
Proteus mirabilis = details: ref Sim et al. 2019
[2] = tested on: carbapenem and polymyxin-resistant Klebsiella pneumoniae; details: ref de Souza et al. (2021)
Candida albicans [3] = details: Candida albicans; ref Sharifzadeh et al. 2019; Iraji et al. 2020; Shaban et al. 2020; Stringaro et al. 2022; Biernasiuk et al. 2022
[4] = tested on: amphotericin B-resistant C. albicans; details: varying among Candida isolates; ref Touil et al. (2020)
HIV-1 = details: ref Mediouni et al. (2020)
HSV-2 = details: HSV-2, 1 mmol/l; ref Wang et al. (2020a)
[5] = tested on: β-haemolytic Streptococcus spp.; details: ref Sim et al. 2019
[6] = tested on: carbapenem and polymyxin-resistant Klebsiella pneumoniae; details: murine models, compared to polymyxin B treatment; ref de Souza et al. (2021)
[7] = tested on: carbapenem-resistant Klebsiella pneumoniae (CRKP) strains; details: with meropenem, ref Köse (2022)
various microorganisms = details: across various microorganisms; ref Owen et al. (2019)
[8] = tested on: Ciprofloxacin-resistant Pseudomonas aeruginosa; details: Ciprofloxacin-resistant Pseudomonas aeruginosa; ref Owen et al. 2019
Candida krusei = details: Candida krusei; ref Sharifzadeh et al. 2019; Iraji et al. 2020; Biernasiuk et al. 2022; Stringaro et al. 2022
Escherichia coli = details: Escherichia coli; ref Owen et al. 2019; Sayout et al. 2020; Noumi et al. 2023
Campylobacter jejuni [9] = tested on: Campylobacter jejuni
[10] = tested on: C. albicans and co-isolated bacteria; details: carvacrol combined with cuminaldehyde; ref Touil et al. (2020)
[11] = tested on: Mupirocin-susceptible Staphylococcus aureus; details: ref Kwiatkowski et al. 2019
Salmonella Thyphimurium = details: ref Giovagnoni et al. 2020
staphylococcal isolates = details: ref Sim et al. 2019
Pseudomonas sp. = details: ref Caballero Gómez et al. 2022
Streptococcus suis = details: ref de Aguiar et al. 2019
Enterococcus sp. = details: ref Caballero Gómez et al. 2022
Pseudomonas aeruginosa = details: Pseudomonas aeruginosa; ref Owen et al. 2019; Sim et al. 2019; Noumi et al. 2023
[12] = tested on: carbapenem-resistant E. coli and P. aeruginosa; details: ref Owen et al. (2019)
[13] = tested on: Methicillin-susceptible Staphylococcus aureus; details: ref Owen et al. 2019
[14] = tested on: Vibrio anguillarum, and Vibrio harveyi; details: ref Rossi et al. (2021)
Candida tropicalis = details: Candida tropicalis; ref Iraji et al. 2020; Stringaro et al. 2022
Klebsiella pneumoniae = details: ref Sayout et al. 2020, de Souza et al. 2021, Kwiatkowski et al. 2022
Candida species = details: ref Stringaro et al. (2022)
Candida albicans [15] = details: ref Shaban et al. 2020
[16] = tested on: bacteria co-isolated with C. albicans; details: ref Touil et al. (2020)
TetK efflux pump = details: S. aureus, ref Sousa Silveira et al. (2020)
Campylobacter jejuni [17] = details: C. jejuni; ref Šimunović et al. (2020)
[18] = tested on: Extended-spectrum beta-lactamases Escherichia coli; details: ESBL Escherichia coli; ref Khan et al. 2020
[19] = tested on: Mupirocin-resistant Staphylococcus aureus; details: ref Kwiatkowski et al. 2019

Which effect on biofilms [1] does the source give for `Cc1ccc(C(C)C)cc1O` [Carvacrol] here?
The effect on biofilms was “inhibited biofilm formation and disrupted pre-formed biofilms”.

And the MIC (Staphylococcus aureus; S. aureus, ref Sousa Silveira et al. (2020))?
The MIC was 0.256 mg/mL (≈ 1.7 mM).

What about the MIC/Sensitivity (Staphylococcus aureus; Staphylococcus aureus, ref Kwiatkowski et al. 2020, Sayout et al. 2020, Sousa Silveira et al. 2020, Macêdo et al. 2022, Noumi et al. 2023, Sharma et al. 2023) of the same compound?
Its MIC/Sensitivity is 0.256 to 3.2 mg/mL.

And the MIC/Sensitivity (Proteus mirabilis)?
Its MIC/Sensitivity is 0.146 to 0.292 mg/mL.

And the MIC [2]?
The MIC was 0.13 to 0.26 mg/mL.

What about the MIC/Sensitivity (Candida albicans [3]) of the same compound?
Its MIC/Sensitivity is 0.04375 to 0.25 mg/mL.

What about the MIC [4] of the same compound?
Its MIC is 250–1,000 μg/ml.

What about the IC50 (HIV-1; HIV-1) of the same compound?
The IC50 was 16 µM.

What about the “reduction of viral infectivity” value (HIV-1; pretreatment of HIV) of the same compound?
Its value is 60.6%.

And the virus release rate (HSV-2)?
The virus release rate was 33.67%.

And the MIC/Sensitivity ([5]; β-haemolytic Streptococcus spp.)?
Its MIC/Sensitivity is 0.146 to 0.292 mg/mL.

What about the MIC90 ([5]; β-hemolytic Streptococcus) of the same compound?
The MIC90 was 0.292 to 0.4 mg/mL.

And the “bacterial counts in infections” value [6]?
The value was “reduced bacterial counts”.

What about the survival [6] of the same compound?
Its survival is “significantly improved survival”.

What about the FICI ([7]; checkerboard assays, CRKP) of the same compound?
Its FICI is 0.5.

What about the “CRKP strains with synergy” value [7] of the same compound?
The value was 8 of 25.

What about the MIC (various microorganisms) of the same compound?
Its MIC is 990 to 15810 µM.

What about the MIC/Sensitivity [8] of the same compound?
Its MIC/Sensitivity is 4749.9564 mg/mL (≈ 31600 mM).

What about the MIC/Sensitivity (Candida krusei) of the same compound?
The MIC/Sensitivity was 0.0875 to 0.125 mg/mL.

What about the MIC/Sensitivity (Escherichia coli) of the same compound?
The MIC/Sensitivity was 297.4356 mg/mL (≈ 1980 mM).

And the MIC/Sensitivity (Campylobacter jejuni [9]; Campylobacter jejuni, ref Šimunović et al. 2020)?
The MIC/Sensitivity was 0.03125 mg/mL (≈ 0.208 mM).

And the MIC (Campylobacter jejuni [9]; ref Šimunović et al. (2020))?
The MIC was 0.03125 mg/mL (≈ 0.208 mM).

And the MIC in combination [10]?
Its MIC in combination is 0.06 to 0.25 mg/mL.

What about the MIC/Sensitivity [11] of the same compound?
The MIC/Sensitivity was 0.95 mg/mL (≈ 6.32 mM).

And the Mechanisms of action (Salmonella Thyphimurium)?
Its Mechanisms of action is “• Anti-inflammatory effects • Anti-oxidant properties • Enhanced epithelial barrier integrity • Reduction of bacterial translocation • Improved transepithelial electrical resistance • Inhibited bacterial growth”.

And the MIC90 (staphylococcal isolates)?
Its MIC90 is 0.146 to 0.2 mg/mL.

What about the MIC/Sensitivity (Candida glabrata; Candida glabrata, ref Sharifzadeh et al. 2019, Iraji et al. 2020, Biernasiuk et al. 2022, Stringaro et al. 2022) of the same compound?
Its MIC/Sensitivity is 0.0625 to 0.195 mg/mL.

What about the FICI (Candida glabrata; with voriconazole, C. glabrata, ref Sharifzadeh et al. (2019)) of the same compound?
The FICI was 0.412–0.625.

What about the MIC/Sensitivity (Pseudomonas sp.) of the same compound?
Its MIC/Sensitivity is 0.1 to 0.4 mg/mL.

What about the MIC/Sensitivity (Streptococcus suis) of the same compound?
The MIC/Sensitivity was 0.15625 mg/mL (≈ 1.04 mM).

And the MIC/Sensitivity (Enterococcus sp.)?
The MIC/Sensitivity was 0.1 to 0.45 mg/mL.

And the MIC/Sensitivity (Pseudomonas aeruginosa)?
The MIC/Sensitivity was 0.585 to 1.12 mg/mL.

What about the activity [12] of the same compound?
Its activity is “ineffective”.

And the MIC/Sensitivity [13]?
Its MIC/Sensitivity is 297.4356 mg/mL (≈ 1980 mM).

What about the MIC [14] of the same compound?
The MIC was 940 to 7500 µM.

And the MIC/Sensitivity (Candida tropicalis)?
The MIC/Sensitivity was 0.0975 mg/mL (≈ 0.649 mM).

And the MIC/Sensitivity (Klebsiella pneumoniae)?
Its MIC/Sensitivity is 0.13 to 1.91 mg/mL.

What about the MIC (Candida species) of the same compound?
The MIC was 0.0975 to 0.195 mg/mL.

And the Mechanisms of action (Candida albicans [15])?
The Mechanisms of action was “• Reduced proteinase production”.

What about the MIC [16] of the same compound?
Its MIC is 1,000 μg/ml.

And the efflux pump inhibition (TetK efflux pump)?
The efflux pump inhibition was “did not act as efflux pump inhibitors”.

And the efflux pump inhibition (Campylobacter jejuni [17])?
Its efflux pump inhibition is “weaker effect”.

What about the Mechanisms of action [18] of the same compound?
Its Mechanisms of action is “• Disintegration of bacterial cell membranes • Elevation of reactive oxygen species levels • Protected macrophage cells from bacterial invasion • Increased the release of K+ ions, ATP, and cellular DNA • Anti-biofilm properties”.

And the MIC/Sensitivity [19]?
Its MIC/Sensitivity is 0.48 mg/mL (≈ 3.2 mM).
